For 80 compounds, LC retention time results are on record in the RepoRT retention time repository (doi:10.1007/s11306-011-0298-z).

The series can be described thus: RP, Waters ACQUITY UPLC HSS T3, 100 × 2.1 mm, 1.8 µm, 30 °C, 0.3 mL/min, estimated dead time 0.73 min; A: water + 0.1% formic acid, pH 3; B: methanol + 0.1% formic acid, pH 3; gradient (min/%B) 0/0 6/0 56/100 60/100. To be noted: stereoisomer not certain.
For `COc1cc(/C=C/C(=O)O)ccc1O` [ferulic acid], the LC retention time is 25.9 min. For the compound `CCCCCC=CCC=CCC=CCC=CCCCC(=O)O` [arachidonic acid], the LC retention time was 53.5 min. Under `CC(=O)C(=O)O` [pyruvic acid] stands 1.79 min. Turning to `O=c1c(OC2OC(CO)C(O)C(O)C2O)c(-c2ccc(OC3OC(CO)C(O)C(O)C3O)c(O)c2)oc2cc(O)cc(O)c12` (stereo not given) [quercetin 3,4'-diglucoside], the LC retention time is 26.1 min.

In the case of `COc1cc(/C=C/C(=O)O)cc(OC)c1O` [sinapic acid], the LC retention time was 25.9 min. For `CCCN` [propylamine], the LC retention time was 1.5 min.

Regarding `O=c1c(OC2OC(COC3OCC(O)C(O)C3O)C(O)C(O)C2O)c(-c2ccc(O)c(O)c2)oc2cc(O)cc(O)c12` (stereo not given) [peltatoside], the LC retention time is 28.3 min. Under `O=C(O)c1ccc(O)cc1O` [beta-resorcylic acid] stands 19.6 min; under `N[C@@H](Cc1ccccc1)C(=O)O` [L-phenylalanine], 11.5 min. With `Cc1c[nH]c2ccccc12` [3-methyl indole], the LC retention time is 34.1 min. Regarding `O=C(O)Cc1c[nH]c2ccccc12` [1H-indol-3-ylacetic acid], the LC retention time was 26.6 min.

Regarding `CN(C)c1ccc(C=CC=O)cc1` [4-dimethylaminocinnamaldehyde], the LC retention time was 34.5 min. Turning to `O=C(O)C(O)C(O)C(O)C(O)C(=O)O` (stereo not given) [mucic acid], the LC retention time was 1.3 min.

Take `OCC1OC(OC2(CO)OC(CO)C(O)C2O)C(O)C(O)C1O` (stereo not given) [sucrose]: the LC retention time was 1.9 min. With `O=Cc1cccc(O)c1` [3-hydroxybenzaldehyd], the LC retention time is 20.3 min. Under `CCCCCCCCCCCCCCCC(=O)OC` [methyl palmitate] stands 56.4 min; under `N=C(N)N` [guanidine], 1.3 min; under `NCCCC(=O)O` [gamma-aminobutyric acid], 2.15 min. In the case of `COc1ccc(-c2coc3cc(OC)cc(O)c3c2=O)cc1` [genistein-4,7-dimethylether] it was 44.8 min.

Regarding `O=C(C=Cc1ccc(O)c(O)c1)OC1C(O)CC(O)(C(=O)O)CC1O` (stereo not given) [cryptochlorogenic acid], the LC retention time was 20.1 min. Take `C[C@@H](O)[C@H](O)[C@H](O)[C@@H](O)C=O` [D-(+)-fucose]: the LC retention time is 1.8 min. Under `CC(=O)NC1C(O)CC(O)(C(=O)O)OC1C(O)C(O)CO` (stereo not given) [N-Acetyl-neuraminic acid] stands 1.5 min; under `O=CC(O)C(O)CO` (stereo not given) [threose], 1.47 min; under `OCC(O)C(O)CO` (racemic), 1.41 min. In the case of `C=CC1=C(C)C(=Cc2[nH]c(Cc3[nH]c(C=C4NC(=O)C(C)=C4C=C)c(C)c3CCC(=O)O)c(CCC(=O)O)c2C)NC1=O` [bilirubin], the LC retention time was 56.4 min.

Regarding `O=c1c(O)c(-c2ccc(O)c(O)c2)oc2cc(O)cc(O)c12` [quercetin], the LC retention time was 34 min. Take `O=C(O)c1ccc(O)cc1` [4-hydroxybenzoic acid]: the LC retention time was 17.5 min. With `O=C(OC1Cc2c(O)cc(O)cc2OC1c1cc(O)c(O)c(O)c1)c1cc(O)c(O)c(O)c1` (stereo not given) [epigallo-catechin gallate], the LC retention time is 22.3 min.

Consider `Cc1ncc(CO)c(C=O)c1O` [pyridoxal], for which the LC retention time was 3.77 min. `O=C(O)CCCCC1SCC2NC(=O)NC21` (stereo not given) [biotin]: the LC retention time was 21.6 min. With `C[N+](C)(C)CC(=O)[O-]` [betaine], the LC retention time was 1.38 min. For `CCC=CCC1C(=O)CCC1CC(=O)O` (stereo not given) [jasmonic acid], the LC retention time was 33.7 min. Take `O=C(O)c1ccccc1` [benzoic acid]: the LC retention time was 26.2 min. `O=C(O)C1(O)CC(O)C(O)C(O)C1` (stereo not given) [quinic acid]: the LC retention time was 1.6 min. For `NCCCCNCCCN` [spermidine], the LC retention time is 1.04 min. Consider `CC(C)CCCC(C)C1CCC2C3CC4OC45CC(O)CCC5(C)C3CCC12C` (racemic), for which the LC retention time is 57.7 min.

For `O=C(O)/C=C/c1ccc(O)cc1` [p-coumaric acid], the LC retention time was 24.3 min. As for `Cc1ncc(COP(=O)(O)O)c(C=O)c1O` [pyridoxal 5-phosphate], the LC retention time is 3.99 min. For `Oc1ccc(C=Cc2cc(O)cc3c2C(c2cc(O)cc(O)c2)C(c2ccc(O)cc2)O3)cc1` (stereo not given), the LC retention time is 33.5 min.

As to `O=c1ccc2cc(OC3OC(CO)C(O)C(O)C3O)c(O)cc2o1` (stereo not given) [esculin], the LC retention time was 17.8 min. On to `CCCCCCCC(=O)OC` [methyl caprylate], for which the LC retention time is 44.2 min.

Turning to `COc1cc(C(=O)O)ccc1O` [vanillic acid], the LC retention time was 20.3 min. With `Nc1ncnc2c1ncn2C1OC(CO)C(O)C1OP(=O)(O)O` (stereo not given) [adenosine 2'-monophosphate], the LC retention time was 10.9 min. Consider `O=C(O)CCc1c[nH]c2ccccc12` [indole-3-propionic acid], for which the LC retention time is 30.3 min. For `Oc1ccc(C=Cc2ccccc2)cc1` [4-stilbenol], the LC retention time is 41.8 min. Consider `CC(CCC(=O)O)C1CCC2C3CC(O)C4CC(O)CCC4(C)C3CCC12C` (stereo not given) [hyodeoxycholic acid], for which the LC retention time was 46.4 min. On to `OC1COC(O)C(O)C1O` (stereo not given) [xylose], for which the LC retention time is 1.4 min.

As to `O=C1CC(c2ccc(O)cc2)Oc2cc(OC3OC(CO)C(O)C(O)C3O)cc(O)c21` (stereo not given) [naringenin 7-glucoside], the LC retention time was 27.9 min. For the compound `CCCCCCCCCCCCCCCCCCCCC(=O)OC` [Methyl henicosanoate], the LC retention time was 60.4 min.

`COc1cc(-c2[o+]c3cc(O)cc(O)c3cc2OC2OCC(O)C(O)C2O)ccc1O` (stereo not given) [peonidin-3-arabinoside]: the LC retention time is 24.8 min. `CC(CCC(=O)NCCS(=O)(=O)O)C1CCC2C3C(O)CC4CC(O)CCC4(C)C3CC(O)C12C` (stereo not given) [taurocholic acid]: the LC retention time was 42.3 min. On to `CCCCCCCCCCCCCCCCCCCC(=O)OC` [methyl arachidate], for which the LC retention time was 59.2 min.

Regarding `Cn1c(=O)c2[nH]cnc2n(C)c1=O` [theophylline], the LC retention time is 17.8 min. Take `NC(N)=O` [urea]: the LC retention time is 1.3 min. In the case of `OCC1OC(Oc2cc3c(OC4OC(CO)C(O)C(O)C4O)cc(O)cc3[o+]c2-c2ccc(O)cc2)C(O)C(O)C1O` (stereo not given) [pelargonidin-3,5-diglucoside] it was 19.6 min; in that of `CC(=O)NC1C(O)OC(CO)C(O)C1O` (stereo not given) [N-acetyl-galactosamine], 1.49 min. Turning to `OCCc1ccc(O)cc1` [tyrosol], the LC retention time was 17.5 min. As to `COc1cc(-c2[o+]c3cc(O)cc(O)c3cc2OC2OC(CO)C(O)C(O)C2O)cc(O)c1O` (stereo not given) [petunidin-3-glucoside], the LC retention time was 22.9 min. Take `NCCCC[C@H](N)C(=O)O` [L-lysine]: the LC retention time was 1.18 min.

`CC[C@H](C)[C@H](N)C(=O)O` [L-isoleucine]: the LC retention time was 4.62 min.

For `CCC=CCC=CCC=CCCCCCCCC(=O)O` [linolenic acid], the LC retention time is 52.3 min. As for `Nc1ccccc1C(=O)CC(N)C(=O)O` [L-kynurenine], the LC retention time is 11 min. Consider `CC1OC(OCC2OC(Oc3c(-c4ccc(O)cc4)oc4cc(O)cc(O)c4c3=O)C(O)C(O)C2O)C(O)C(O)C1O` (stereo not given) [kaempferol 3-rutinoside], for which the LC retention time was 31.4 min. In the case of `CCCCCCCC/C=C\CCCCCCCCCC(=O)OC` [methyl cis-11-eicosenoate] it was 57.9 min; in that of `O=C(O)C1CNCCN1` (stereo not given) [piperazine carboxylic acid], 1.19 min; in that of `Cc1cc2nc3c(=O)[nH]c(=O)nc-3n(CC(O)C(O)C(O)COP(=O)(O)O)c2cc1C` (stereo not given) [FMN], 21.9 min.

In the case of `CC(C)c1ccc(C=O)cc1` [cuminaldehyde], the LC retention time was 38.6 min. For `N[C@@H](CS)C(=O)O` [L-cysteine], the LC retention time is 1.23 min.

Turning to `O=C(O)C(=O)Cc1c[nH]c2ccccc12` [indole-3-pyruvic acid], the LC retention time is 30.3 min. For the compound `O=c1c(OC2OC(CO)C(O)C(O)C2O)c(-c2ccc(O)c(O)c2)oc2cc(O)cc(O)c12` (stereo not given) [quercetin-3-galactoside], the LC retention time was 28.9 min.

For the compound `O=c1[nH]c(=O)c2[nH]c(=O)[nH]c2[nH]1` [uric acid], the LC retention time is 1.62 min. In the case of `COc1ccccc1O` [guaiacol] it was 22.5 min; in that of `COc1cc(-c2oc3cc(O)cc(O)c3c(=O)c2O)cc(O)c1O` [laricitrin], 34.7 min. Turning to `O=C(CCc1ccc(O)cc1)c1c(O)cc(O)cc1OC1OC(CO)C(O)C(O)C1O` (stereo not given) [phloridzin], the LC retention time is 29.6 min.

In the case of `O=c1cc(-c2ccc(O)c(O)c2)oc2cc(OC3OC(CO)C(O)C(O)C3O)cc(O)c12` (stereo not given) [luteolin 7-glucoside], the LC retention time was 28.1 min. Regarding `COc1cc(C=O)ccc1O` [vanillin], the LC retention time was 21.5 min.

As to `Oc1ccc(C2Oc3cc(O)c4c(c3C2c2cc(O)cc(O)c2)C2c3c(O)cc5c(c3C(C4c3ccc(O)cc3)C2c2ccc(O)cc2)C(c2cc(O)cc(O)c2)C(c2ccc(O)cc2)O5)cc1` (stereo not drawn) [vaticanol C like isomer], the LC retention time was 29 min. As to `CCCCCCCCCCCCCCCCCCCCCCCC(=O)O` [lignoceric acid], the LC retention time was 60.2 min. As for `C=C1CC23CC1(O)CCC2C12C=CC(O)C(C)(C(=O)O1)C2C3C(=O)O` (stereo not given) [gibberellic acid], the LC retention time is 25.5 min. Consider `CCC(=O)OCC=C(C)CCC=C(C)C` [geranyl propionate], for which the LC retention time is 48.2 min.
